Test results reported in PubChem BioAssay AID1259407 (Chemical Carcinogenesis Research Information System (CCRIS), 2018).
The source made the active and inactive calls. No rule for the calls is given here.

Tested on: CCRIS mutagenicity, Ames/micronucleus/aberration tests
Assay: CCRIS mutagenicity studies
Conditions: Test System: AMES SALMONELLA TYPHIMURIUM, Method: PREINCUBATION

Measured: mutagenic call

CC(O)C#N (stereo not drawn)
inactive: Strain/Indicator: TA97, Metabolic Activation: HAMSTER, LIVER, S-9, AROCLOR 1254 (10%) inactive; negative | Strain/Indicator: TA97, Metabolic Activation: HAMSTER, LIVER, S-9, AROCLOR 1254 (30%) inactive; negative | Strain/Indicator: TA97, Metabolic Activation: NONE inactive; negative | Strain/Indicator: TA97, Metabolic Activation: RAT, LIVER, S-9, AROCLOR 1254 (5%) inactive; negative | Strain/Indicator: TA97, Metabolic Activation: RAT, LIVER, S-9, AROCLOR 1254 (10%) inactive; negative | Strain/Indicator: TA97, Metabolic Activation: RAT, LIVER, S-9, AROCLOR 1254 (30%) inactive; negative | Strain/Indicator: TA98, Metabolic Activation: HAMSTER, LIVER, S-9, AROCLOR 1254 (10%) inactive; negative | Strain/Indicator: TA98, Metabolic Activation: HAMSTER, LIVER, S-9, AROCLOR 1254 (30%) inactive; negative | Strain/Indicator: TA98, Metabolic Activation: NONE inactive; negative | Strain/Indicator: TA98, Metabolic Activation: RAT, LIVER, S-9, AROCLOR 1254 (10%) inactive; negative | Strain/Indicator: TA98, Metabolic Activation: RAT, LIVER, S-9, AROCLOR 1254 (30%) inactive; negative | Strain/Indicator: TA100, Metabolic Activation: HAMSTER, LIVER, S-9, AROCLOR 1254 (10%) inactive; negative | Strain/Indicator: TA100, Metabolic Activation: HAMSTER, LIVER, S-9, AROCLOR 1254 (30%) inactive; negative | Strain/Indicator: TA100, Metabolic Activation: NONE inactive; negative | Strain/Indicator: TA100, Metabolic Activation: RAT, LIVER, S-9, AROCLOR 1254 (5 OR 30%) inactive; negative | Strain/Indicator: TA100, Metabolic Activation: RAT, LIVER, S-9, AROCLOR 1254 (10%) inactive; negative | Strain/Indicator: TA1535, Metabolic Activation: HAMSTER, LIVER, S-9, AROCLOR 1254 (10%) inactive; negative | Strain/Indicator: TA1535, Metabolic Activation: HAMSTER, LIVER, S-9, AROCLOR 1254 (30%) inactive; negative | Strain/Indicator: TA1535, Metabolic Activation: NONE inactive; negative | Strain/Indicator: TA1535, Metabolic Activation: RAT, LIVER, S-9, AROCLOR 1254 (10%) inactive; negative | Strain/Indicator: TA1535, Metabolic Activation: RAT, LIVER, S-9, AROCLOR 1254 (30%) inactive; negative | Strain/Indicator: TA1537, Metabolic Activation: HAMSTER, LIVER, S-9, AROCLOR 1254 (30%) inactive; negative | Strain/Indicator: TA1537, Metabolic Activation: RAT, LIVER, S-9, AROCLOR 1254 (30%) inactive; negative
